Data reported in patent US9120820B2, “Fluorescent molecular probes for use in assays that measure test compound competitive binding with SAM-utilizing proteins” (CAYMAN CHEMICAL COMPANY, INCORPORATED, priority 2011, dated 2015).

Key:
PRMT1 = target: T1, PRMT1 (Homo sapiens, UniProt Q99873); experiment: Radiometric methyltransferase assay, PRMT1; assay type: biochemical; details: PRMT1 100 nM; compound 10 μM, 1 μM, or 0.1 μM; FIG. 13
T1 construct: purchased Cayman
Experimental: (§1) Reagents: Compound 16A was prepared by the method described in Example 4 and illustrated in FIG. 5. The Compounds 20A-iv and 20A-iii were prepared according to methods described in Example 6 and illustrated in FIG. 7. Enzymes were obtained from the Cayman Catalog with the exception of PRMT4 and PRMT6, which were produced in baculovirus and purified to near homogeneity using Ni-affinity chromatography. Human core histones were purified from HeLa nuclear pellet per the method of Coté et al. S-adenosylmethionine (SAM) was obtained from Sigma-Aldrich (Cat #A7007) and S-[methyl-3H]-SAM was obtained from Perkin-Elmer ([…]). Methods: […] To this was added enzyme diluted to provide a final assay concentration (GLP: 10 nM; PRMT1: 100 nM; SET7/9: 120 nM; PRDM9: 120 nM; PRMT4: 150 nM; PRMT6: 120 nM; G9a: 200 nM) and the compound was allowed to preincubate for 10 minutes at room temperature. […] Samples were mixed immediately after quenching and transferred to a 96-well GFC Uni-Filter microtiter filter plate (Perkin Elmer, Cat#6005174) that contained 50 μl of 20% TCA. Samples were allowed to precipitate for at least 5 minutes at room temperature. The samples were filtered onto the GFC membrane and washed four times with 100 μl of 10% TCA and once with 100 μl of 95% EtOH. To each well was added 25 μl of MicroScint-20 (Perkin-Elmer Cat#6013621) and samples were analyzed using a TopCount NXT microplate scintillation counter. The experiment was performed one time in duplicate for all compound concentrations tested and in triplicate for the vehicle and no enzyme controls. All data was analyzed in GraphPad Prism (v. 5.04).

G9a = target: T2, G9a (Homo sapiens, UniProt Q96KQ7); experiment: Radiometric methyltransferase assay, G9a; assay type: biochemical; details: G9a 200 nM; compound 10 μM, 1 μM, or 0.1 μM; FIG. 13
T2 construct: purchased Cayman 49010353
T2 sequence (Q96KQ7 1-1210): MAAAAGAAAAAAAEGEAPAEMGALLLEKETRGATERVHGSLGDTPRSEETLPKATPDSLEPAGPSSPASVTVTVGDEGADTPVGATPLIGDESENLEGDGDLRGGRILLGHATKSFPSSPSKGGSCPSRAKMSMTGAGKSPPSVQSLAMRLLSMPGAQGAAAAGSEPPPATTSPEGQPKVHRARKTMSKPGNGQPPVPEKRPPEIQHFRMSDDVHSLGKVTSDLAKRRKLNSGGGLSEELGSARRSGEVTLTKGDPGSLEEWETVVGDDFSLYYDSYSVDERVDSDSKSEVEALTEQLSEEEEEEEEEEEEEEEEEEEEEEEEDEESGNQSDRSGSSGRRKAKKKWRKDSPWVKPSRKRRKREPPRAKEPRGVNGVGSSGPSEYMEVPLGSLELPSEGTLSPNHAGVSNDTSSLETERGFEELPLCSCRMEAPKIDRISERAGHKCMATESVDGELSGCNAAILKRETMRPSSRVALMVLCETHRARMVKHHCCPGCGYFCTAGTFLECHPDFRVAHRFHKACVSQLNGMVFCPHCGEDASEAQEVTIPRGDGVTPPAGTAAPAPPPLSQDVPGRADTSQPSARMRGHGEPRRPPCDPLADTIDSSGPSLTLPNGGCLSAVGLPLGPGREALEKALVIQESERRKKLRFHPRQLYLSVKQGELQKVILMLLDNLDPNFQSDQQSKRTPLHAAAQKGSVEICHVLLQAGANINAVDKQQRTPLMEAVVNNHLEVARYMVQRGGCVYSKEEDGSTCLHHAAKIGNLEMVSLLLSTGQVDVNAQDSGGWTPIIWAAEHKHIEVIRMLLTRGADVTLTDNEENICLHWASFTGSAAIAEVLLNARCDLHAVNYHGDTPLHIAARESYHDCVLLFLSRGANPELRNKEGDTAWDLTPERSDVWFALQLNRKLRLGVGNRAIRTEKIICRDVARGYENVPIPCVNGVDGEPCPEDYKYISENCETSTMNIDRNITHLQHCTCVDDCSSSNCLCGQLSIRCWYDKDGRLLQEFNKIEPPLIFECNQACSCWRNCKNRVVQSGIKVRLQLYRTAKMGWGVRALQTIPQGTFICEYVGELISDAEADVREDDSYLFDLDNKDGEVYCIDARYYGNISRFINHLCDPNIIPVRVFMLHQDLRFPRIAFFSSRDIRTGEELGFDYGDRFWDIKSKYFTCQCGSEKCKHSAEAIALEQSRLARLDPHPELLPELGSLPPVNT
Experimental: as §1

PRMT6 = target: T3, PRMT6 (Homo sapiens, UniProt Q96LA8); experiment: Radiometric methyltransferase assay, PRMT6; assay type: biochemical; details: PRMT6 120 nM; compound 10 μM, 1 μM, or 0.1 μM; FIG. 13
T3 construct: made in house; host or cells: baculovirus expression
T3 sequence (Q96LA8 whole entry, species assumed): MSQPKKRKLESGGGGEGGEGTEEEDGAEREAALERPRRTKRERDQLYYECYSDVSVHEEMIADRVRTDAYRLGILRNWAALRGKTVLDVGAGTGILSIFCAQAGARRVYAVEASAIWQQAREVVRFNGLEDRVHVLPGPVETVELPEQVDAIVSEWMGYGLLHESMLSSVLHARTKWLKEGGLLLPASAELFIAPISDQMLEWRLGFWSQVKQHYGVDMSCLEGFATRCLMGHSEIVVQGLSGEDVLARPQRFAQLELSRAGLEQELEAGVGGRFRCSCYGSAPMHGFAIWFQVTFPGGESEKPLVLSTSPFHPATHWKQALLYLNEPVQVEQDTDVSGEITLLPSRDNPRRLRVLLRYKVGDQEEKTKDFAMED
Experimental: as §1

PRDM9 = target: T4, PRDM9 (Homo sapiens, UniProt Q9NQV7); experiment: Radiometric methyltransferase assay, PRDM9; assay type: biochemical; details: PRDM9 120 nM; compound 10 μM, 1 μM, or 0.1 μM; FIG. 13
T4 construct: purchased Cayman
T4 sequence (Q9NQV7 whole entry, species assumed): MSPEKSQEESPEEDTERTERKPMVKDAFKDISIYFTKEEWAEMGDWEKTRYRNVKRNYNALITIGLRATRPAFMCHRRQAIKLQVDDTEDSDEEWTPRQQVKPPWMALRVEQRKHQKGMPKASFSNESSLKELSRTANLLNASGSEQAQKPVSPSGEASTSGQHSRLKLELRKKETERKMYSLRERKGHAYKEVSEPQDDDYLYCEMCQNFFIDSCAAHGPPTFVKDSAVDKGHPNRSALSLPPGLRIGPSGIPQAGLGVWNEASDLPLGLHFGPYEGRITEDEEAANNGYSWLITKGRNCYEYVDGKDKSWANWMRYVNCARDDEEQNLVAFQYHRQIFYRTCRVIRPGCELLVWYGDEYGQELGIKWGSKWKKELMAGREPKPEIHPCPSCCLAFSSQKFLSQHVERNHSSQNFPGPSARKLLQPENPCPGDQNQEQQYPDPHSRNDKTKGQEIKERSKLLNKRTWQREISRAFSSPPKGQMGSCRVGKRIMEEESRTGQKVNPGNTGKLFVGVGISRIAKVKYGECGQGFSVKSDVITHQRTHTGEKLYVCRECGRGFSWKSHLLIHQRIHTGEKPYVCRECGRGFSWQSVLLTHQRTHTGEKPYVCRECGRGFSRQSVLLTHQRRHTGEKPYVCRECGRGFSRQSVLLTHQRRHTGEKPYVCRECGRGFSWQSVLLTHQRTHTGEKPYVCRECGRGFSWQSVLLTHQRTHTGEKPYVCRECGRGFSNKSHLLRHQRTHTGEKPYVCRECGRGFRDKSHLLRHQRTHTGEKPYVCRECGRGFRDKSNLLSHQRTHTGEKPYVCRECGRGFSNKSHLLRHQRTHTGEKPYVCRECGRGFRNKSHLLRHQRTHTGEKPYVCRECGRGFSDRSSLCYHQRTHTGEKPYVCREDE
Experimental: as §1

SET7/9 [1] = target: T5, SET7/9 (Homo sapiens, UniProt Q8WTS6); experiment: Radiometric methyltransferase assay, SET7/9; assay type: biochemical; details: SET7/9 120 nM; compound 10 μM, 1 μM, or 0.1 μM; FIG. 13
T5 construct: purchased Cayman 10320
T5 sequence (Q8WTS6 1-366): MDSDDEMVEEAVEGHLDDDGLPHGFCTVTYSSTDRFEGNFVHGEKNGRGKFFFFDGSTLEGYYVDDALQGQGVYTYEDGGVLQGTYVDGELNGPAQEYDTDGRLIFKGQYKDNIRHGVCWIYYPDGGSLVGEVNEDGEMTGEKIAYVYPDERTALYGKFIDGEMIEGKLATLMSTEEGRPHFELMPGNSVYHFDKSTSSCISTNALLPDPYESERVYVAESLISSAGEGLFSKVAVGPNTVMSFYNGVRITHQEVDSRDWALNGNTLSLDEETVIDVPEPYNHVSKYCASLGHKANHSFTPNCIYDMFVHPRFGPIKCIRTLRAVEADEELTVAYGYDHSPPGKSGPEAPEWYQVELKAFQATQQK
Experimental: as §1

SET7/9 [2] = target: T5, SET7/9; experiment: SET7/9 SAM-Screener high-throughput FP assay, Sinefungin Probe 1A displacement; assay type: binding; details: SET7/9 30 nM, FIG. 10
Experimental: Methods: A collection of 14,400 compounds from the Maybridge HitFinder collection of compounds was assayed for the displacement of Sinefungin Probe 1A from SET7/9 in a high-throughput manner using the SET7/9 SAM-Screener FP assay Cayman Catalog Item #600490). Thirty microliters of assay buffer (50 mM Tris pH 8.0, 50 mM KCl, 5 mM CHAPS, 2 mM DTT) was added to every well of a black 384-well polystyrene microtiter plate (Thermo-Fisher 364576). To every well, excluding control wells, was added one microliter of a DMSO solution containing a test compound. Control wells received either 1 μl DMSO or 1 μl of a sinefungin solution. The final concentration of sinefungin control or test compounds in the assay was 50 μM or 10 μM, respectively. To every well of the plate was added 10 μl of a SET7/9 solution to give a final assay concentration of 30 nM. After a 15-minute incubation at ambient temperature, 10 μl of Sinefungin Probe 1A solution was added to every well to give a final assay concentration of 10 nM in a total assay volume of 50 μl Samples were analyzed using a Biotek Synergy H4 plate reader in fluorescence polarization mode after a 30-minute incubation at ambient temperature in the dark. Data were analyzed using GeneData (v. 9.01). […]

Sumo = experiment: Fluorescence polarization saturation binding of fluorescent probe to Sumo (control protein); details: saturation-binding format, read-out: Sinefungin Probe 1A Affinity
Experimental: Sinefungin Probe 1A was tested for the ability to bind to 16 proteins, including several non-methlytransferase protein controls (Table 2). This probe binds to 4 methyltransferases (SET7/9, G9a, GLP, MLL) with Kd values <2 μM.

T1 sequence (Q99873 whole entry): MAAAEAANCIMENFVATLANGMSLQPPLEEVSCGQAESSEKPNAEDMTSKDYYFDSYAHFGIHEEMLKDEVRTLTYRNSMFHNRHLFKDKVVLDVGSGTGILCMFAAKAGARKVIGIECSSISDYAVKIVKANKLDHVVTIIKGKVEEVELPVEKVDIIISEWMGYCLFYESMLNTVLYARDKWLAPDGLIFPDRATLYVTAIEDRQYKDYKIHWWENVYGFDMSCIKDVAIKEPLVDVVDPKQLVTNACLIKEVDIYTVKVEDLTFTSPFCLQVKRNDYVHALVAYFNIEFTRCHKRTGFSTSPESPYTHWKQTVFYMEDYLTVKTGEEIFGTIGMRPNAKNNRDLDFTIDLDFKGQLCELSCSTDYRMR

inhibition of enzymatic activity (PRMT1)	inhibition of enzymatic activity (G9a)	inhibition of enzymatic activity (PRMT6)	inhibition of enzymatic activity (PRDM9)	inhibition of enzymatic activity (SET7/9 [1])	increase of probe polarization by binding (SET7/9 [2])	Kd (Sumo)	Structure (SMILES)
inhibits	inhibits	not dramatically altering the activity	inhibits	not dramatically altering the activity	–	–	CSC[C@H]1O[C@@H](n2cnc3c(N)nc(NCCNC(=O)OC(C)(C)C)nc32)[C@H](O)[C@@H]1O [Compound 16A, tert-butyl (2-((6-amino-9-((2R,3R,4S,5S)-3,4-dihydroxy-5-((methylthio)methyl)tetrahydrofuran-2-yl)-9H-purin-2-yl)amino)ethyl)carbamate]
did not show appreciable inhibition	did not show appreciable inhibition	some modest inhibition	did not show appreciable inhibition	did not show appreciable inhibition	–	–	CCNC(=O)[C@H]1O[C@@H](n2cnc3c(N)nc(Cl)nc32)[C@H](O)[C@@H]1O [Compound 20A-iii, 2-chloroadenosine-5′-N-ethylcarboxamide]
did not show appreciable inhibition	did not show appreciable inhibition	did not show appreciable inhibition	did not show appreciable inhibition	did not show appreciable inhibition	–	–	CCNC[C@H]1O[C@@H](n2cnc3c(N)nc(Cl)nc32)[C@H](O)[C@@H]1O [Compound 20A-iv, 2-chloroadenosine-5′-N-ethylamine]
–	–	–	–	–	> 120 mp	> 10 µM	Nc1ncnc2c1ncn2[C@@H]1O[C@H](C[C@@H](N)CC[C@H](N)C(=O)O)[C@@H](OCc2cnnn2CCCCCCNC(=O)OC2CCN(C(=O)c3ccccc3C3=c4cc5c6c(c4Oc4c3cc3c7c4CCCN7CCC3)CCC[N+]=6CCC5)CC2)[C@H]1O [Sinefungin Probe 1A]
